Patent US20060013780A1, “N,N'-dialkyl derivatives of polyhydroxyalkyl alkylenediamines” (priority 2004, published 2006)

Legend:
[1] = Dynamic surface tension, maximum bubble pressure method; assay type: physicochemical; details: for DST (0.1 WT %, mN/m) 0.1 b/s / DST (0.1 WT %, mN/m) 10 b/s: 0.1 wt % in distilled and deionized water; for DST (0.1 WT %, mN/m) 0.1 b/s / DST (0.5 WT %, mN/m) 0.1 b/s: 0.1 bubbles/sec; for DST (0.1 WT %, mN/m) 10 b/s / DST (0.5 WT %, mN/m) 10 b/s: 10 bubbles/sec; for DST (0.5 WT %, mN/m) 0.1 b/s / DST (0.5 WT %, mN/m) 10 b/s: 0.5 wt % in distilled and deionized water
Description: Solutions in distilled and deionized water of the surfactants of the invention were prepared. […] In a practical sense, high surface creation rates refer to rapid processes such as a spray or roller-applied coating, a high speed printing operation, or the rapid application of an agricultural product or a cleaner.

[2] = Equilibrium surface tension, Kruss K-12 tensiometer with platinum Wilhelmy plate; assay type: physicochemical; details: 25±1° C.; for EST (0.01 WT %, mN/m): 0.01 wt % in water; for EST (0.1 WT %, mN/m): 0.1 wt % in water; for EST (1.0 WT %, mN/m): 1.0 wt % in water
Description: Equilibrium surface tensions were determined using a Kruss K-12 tensiometer with a platinum Wilhelmy plate, maintaining the temperature at 25±1° C. by means of a constant temperature circulating bath.

[3] = Ross-Miles foam test (modified, ASTM D1173-53); assay type: physicochemical; details: surfactant in water; 0.01 wt % and 0.1 wt %, table does not say which
[4] = Cleaning performance, ASTM D4488-95, reflectance of white vinyl composition tile; details: 0.1% (wt %) surfactant
From the text: Although dynamic and equilibrium surface tension as well as foam influence the cleaning ability of a surfactant, other factors also affect cleaning performance. Thus one good way to determine the cleaning ability of a surfactant is to apply a soil to a substrate, clean that substrate with the surfactant of interest and some benchmark surfactants, and compare relative cleaning efficacies in terms of percent soil removal. One method for conducting such testing is described in ASTM D4488-95, “Standard Guide for Testing Cleaning Performance of Products Intended for Use on Resilient Flooring and Washable Walls.” This method was followed according to the particulate and oily soil/vinyl tiles test methodology, with cleaning performance being evaluated by reading average reflectance values (5 readings/tile) of a white vinyl composition tile before and after cleaning (Table 6). The higher the reflectance value the better the cleaning ability of the surfactant.
The cleaning performance of surfactants according to the invention was compared side by side with that of two benchmark surfactants, Neodol 23-6.5 (available from Shell Chemical of Houston, Tex.) and AG 6202 (available from Akzo Nobel of McCook, Ill.), an alcohol ethoxylate and an alkylpolyglucoside surfactant, respectively.

[5] = Aqueous solubility comparison; details: in water
Description: Comparison of the aqueous solubilities of several N,N′-dialkyl-N,N′-bis(1-deoxyglucityl)ethylenediamines was performed, with the results as follows:
The ratios of compounds are on a molar basis.

DST (0.1 WT %, mN/m) 0.1 b/s [1] [mN/m] | DST (0.1 WT %, mN/m) 10 b/s [1] [mN/m] | DST (0.5 WT %, mN/m) 0.1 b/s [1] [mN/m] | DST (0.5 WT %, mN/m) 10 b/s [1] [mN/m] | dynamic surface tension reduction in words ([1]; Table 4 data, strong at low bubble rates) | EST (0.01 WT %, mN/m) [2] [mN/m] | EST (0.1 WT %, mN/m) [2] [mN/m] | EST (1.0 WT %, mN/m) [2] | Ross Miles Final Foam (cm) [3] [cm] | Ross Miles Initial Foam (cm) [3] [cm] | Compound | % SOIL REMOVAL [4] [%] | aqueous solubility in words [5]
63 | 67 | 56 | 47 | moderate to low | 62 | 50 | 47 mN/m | 0.5 | 1.8 | CCCCN(CCN(CCCC)C[C@H](O)[C@@H](O)[C@H](O)[C@H](O)CO)C[C@H](O)[C@@H](O)[C@H](O)[C@H](O)CO [DBDGEDA, N,N′-dibutyl-N,N′-bis(1-deoxyglucityl)-1,2-diaminoethane] | 45 | 
 |  |  |  |  |  |  |  |  |  | N,N′-dioctyl-N,N′-bis(1-deoxyglucityl)ethylenediamine [DODGEDA] | 48 | 
68 | 70 | 55 | 57 |  | 64 | 60 | 52 mN/m | 1.0 | 2.0 | CCCCCCNC[C@H](O)[C@@H](O)[C@H](O)[C@H](O)CO [N-Hexylglucamine] |  | 
54 | 65 | 48 | 62 |  | 55 | 35 | 35 mN/m | 0.3 | 2.0 | CCCCCCCCNC[C@H](O)[C@@H](O)[C@H](O)[C@H](O)CO [N-Octylglucamine] |  | 

Compound | DST (0.1 WT %, mN/m) 0.1 b/s [1] [mN/m] | DST (0.1 WT %, mN/m) 10 b/s [1] [mN/m] | DST (0.5 WT %, mN/m) 0.1 b/s [1] [mN/m] | DST (0.5 WT %, mN/m) 10 b/s [1] [mN/m] | dynamic surface tension reduction in words ([1]; Table 4 data, strong at low bubble rates) | EST (0.01 WT %, mN/m) [2] [mN/m] | EST (0.1 WT %, mN/m) [2] [mN/m] | EST (1.0 WT %, mN/m) [2] | Ross Miles Final Foam (cm) [3] [cm] | Ross Miles Initial Foam (cm) [3] [cm] | % SOIL REMOVAL [4] [%] | aqueous solubility in words [5]
CCCCCCN(CCN(CCCCCC)C[C@H](O)[C@@H](O)[C@H](O)[C@H](O)CO)C[C@H](O)[C@@H](O)[C@H](O)[C@H](O)CO [DHDGEDA, N,N′-dihexyl-N,N′-bis(1-deoxyglucityl)-1,2-diaminoethane] | 37 | 51 | 30 | 32 |  | 57 | 33 | 30 mN/m | 1.5 | 3.6 | 67 | extreme insolubility
CCCCNC[C@H](O)[C@@H](O)[C@H](O)[C@H](O)CO [N-Butylglucamine] | 71 | 72 | 70 | 71 |  |  |  | ≧50 mN/m | 0.3 | 2.5 |  | 
